{"source": "patent US20040132821A1", "about": "“Therapeutic combination of carnitine and antioxidant polyphenols” (priority 2002, published 2004)", "key": {"mice": {"test_system": "mice", "test": "Toxicological test, parenteral administration, mice", "format": "in vivo", "source_text": "(§1) Both carnitines and hydroxytyrosol are well known for their low toxicity and good tolerability. These favorable toxicological characteristics of carnitines and hydroxytyrosol have been confirmed."}, "rats": {"test_system": "rats", "test": "Toxicological test, parenteral administration, rats", "format": "in vivo", "source_text": "as §1"}, "[1]": {"settings": "cited from earlier work"}, "[2]": {"settings": "after consumption of a meal, hydroxytyrosol in olive oil; cited from earlier work"}, "[3]": {"settings": "humans, after ingestion; cited from earlier work"}}, "note": "Read-outs that look alike come from different tables or passages of the source."}
{"smiles": "CC(=O)O[C@H](CC(=O)[O-])C[N+](C)(C)C", "note": "[acetyl-L-carnitine, Acetyl-L-carnitine]", "values": [{"measurement": "amount possible to administer parenterally", "setting": "mice", "result": "up to 250 mg/kg"}, {"measurement": "amount possible to administer parenterally", "setting": "rats", "result": "up to 250 mg/kg"}]}
{"smiles": "OCCc1ccc(O)c(O)c1", "note": "[hydroxytyrosol, Hydroxytyrosol]", "values": [{"measurement": "oral bioavailability", "setting": "[1]; aqueous solution", "result": 71, "unit": "%"}, {"measurement": "oral bioavailability", "setting": "[1]; olive oil solution", "result": 99, "unit": "%"}, {"measurement": "time of peak postprandial concentration", "setting": "[2]", "result": "1 to 2", "unit": "h"}, {"measurement": "preferential route of excretion", "setting": "[3]", "result": "glucuronide conjugates in urine"}]}
